According to patent US8481459B2, “Chemical inhibitors of ethylene biosynthesis” (Academia Sinica, priority 2010, dated 2013):

Test system: gene expression in etiolated eto1-4 seedlings
Experiment: Transcriptional profiling (ATH1 GeneChip microarray) of etiolated eto1-4 seedlings
Type: in vivo, Arabidopsis thaliana
Conditions: ratio eto1-4 treated to eto1-4 (no treatment)
Experimental: For chemical treatments, seeds were sown on 0.5×MS agar medium supplemented with 10 μM chemicals (AVG, compounds 9393, 9370, and 7303) or DMSO (as control). Arabidopsis seeds were stratified in the dark at 4° C. for 4 days, then germinated in the dark for 3 days at 22° C. Approximately 2,000 etiolated seedlings of the wild type or eto1-4 were used to collect tissues for preparation of total RNA in each microarray experiment with Arabidopsis ATH1 GeneChip (Affymetrix). Extraction of RNA followed an established protocol (Chang, et al. (1993) Plant Mol. Biol. Rep. 11, 113-117). Total RNA (10 μg) was used to prepare biotinylated cRNA for hybridization to ATH1 GeneChip in the experiments disclosed herein. Experiments were repeated by 2 independent biological duplicates, and candidate genes present in both experiments were selected for further analysis. The MASS method was used for data analysis and normalization by all sample medium. Candidate genes were selected by the following criteria. First, genes with 1.5-fold differential expression between the wild type and eto1-4 were selected as the master gene pool, which was then used for comparison in treatments with AVG and individual exemplary compounds. Data were presented in hierarchical clustering and Venn diagram format. Agilent GeneSpring GX and Bioconductor software were used to analyze the expression profile data. Gene Ontology descriptions were generated by GeneSpring GX and further referred to the TAR GO database. Raw data are available in the GEO database (http://www.ncbi.nlm.nih.gov/geo) with Accession no. GSE20897.
The filtered and normalized expression data set from 22810 probes on the ATH1 Genechip was used for hierarchical clustering of gene expression profiles for comparison between AVG and the exemplary invention compounds in eto1-4. It was identified that 1,446 genes show at least 1.5-fold difference in expression between the WT and eto1-4 and used them as the master gene pool for clustering analysis (FIG. 7A). […] These genes likely contribute to the etiolated phenotype of eto1-4 by responding to elevated endogenous ethylene. To determine whether the exemplary compounds have specific r overlapping functions with AVG to suppress the eto1-4 phenotype, genes that are regulated by individual exemplary invention compounds and AVG for Venn diagram analysis were clustered (FIG. 7B). More than 63% of genes (356/561 for compound 9393; 389/561 for compound 9370; 399/561 for compound 7303; FIG. 7B) with expression associated with AVG were co-regulated by the exemplary invention compounds, which indicates an overlap function in suppression of the ethylene phenotype in eto1-4. […] Next genes co-regulated by all of the exemplary invention compounds and AVG were examined by performing a clustering analysis using the co-regulated genes identified in FIG. 7B: 356 (compound 9393 vs AVG), 389 (compound 9370 vs AVG) and 399 genes (compound 7303 vs AVG). It was uncovered that 276 genes were co-regulated by all of the exemplary invention compounds and AVG (FIG. 7C and Table 2). On the basis of GO descriptions generated by Gene Spring GX and TAIR database, the 276 genes were divided into subgroups related to their biological functions (Table 2). […] In addition, stress- and pathogenesis-related genes were among the co-regulated genes, possibly because ethylene is involved in both biotic and abiotic stresses.
Genes (1446 non-redundant loci) were selected by 1.5-fold differential expression between eto1-4 and WT as the master pool for analysis. These genes were used for comparison between chemical treatments by AVG and the exemplary invention compounds. The finalized 276 genes that are co-regulated by AVG and all of the exemplary invention compounds are shown. Locus ID also present in Nemhauser et al. (Nemhauser, et al. (2006) Cell 126, 467-475).

Structure (SMILES): COc1ccc(C2CC(=O)c3cnc(Nc4ccccc4)nc3C2)cc1 (centres unmarked) [Compound 7303]
- Signal Fold Change AT3G14850, unknown biological function: 0.13
- Signal Fold Change AT3G15890 protein kinase: 2.14
- Signal Fold Change AT3G16450 jacalin lectin protein: 3.13
- Signal Fold Change AT3G16470 jacalin lectin protein: 6.91
- Signal Fold Change AT3G16690, unknown biological function: 4.80
- Signal Fold Change AT3G17680, unknown biological function: 0.17
- Signal Fold Change AT3G20130 cytochrome P450: 1.89
- Signal Fold Change AT3G21770 peroxidase 30: 1.84
- Signal Fold Change AT3G22620 lipid transfer protein: 2.70
- Signal Fold Change AT3G23150 ethylene receptor, putative (ETR2): 0.18
- Signal Fold Change AT3G23800, unknown biological function: 0.33
- Signal Fold Change AT3G24670, unknown biological function: 0.38
- Signal Fold Change AT3G25710 bHLH protein: 2.51
- Signal Fold Change AT3G25730 AP2-containing transcription factor: 0.21
- Signal Fold Change AT3G25980 mitotic spindle checkpoint protein: 2.49
- Signal Fold Change AT3G27580 protein kinase: 0.46
- Signal Fold Change AT3G28290, unknown biological function: 0.27
- Signal Fold Change AT3G29250 short-chain dehydrogenase: 20.57
- Signal Fold Change AT3G30775 proline oxidase, mitochondrial: 4.43
- Signal Fold Change AT3G43270 pectinesterase protein: 0.33
- Signal Fold Change AT3G44820, response to light stimulus, phototropic-responsive NPH3 protein: 2.99
- Signal Fold Change AT3G44990 endo-xyloglucan transferase: 0.21
- Signal Fold Change AT3G45710 proton-dependent oligopeptide transport (POT) protein: 4.30
- Signal Fold Change AT3G46130 myb transcription factor (MYB48): 2.20
- Signal Fold Change AT3G46700 UDP-glucosyl transferase: 7.33
- Signal Fold Change AT3G47210, unknown biological function: 3.50
- Signal Fold Change AT3G47250, unknown biological function: 5.15
- Signal Fold Change AT3G49780 phytosulfokines 3 (PSK3): 9.23
- Signal Fold Change AT3G50660 steroid 22-alpha-hydroxylase: 4.40
- Signal Fold Change AT3G51410, unknown biological function: 0.21
- Signal Fold Change AT3G51970, unknown biological function: 3.02
- Signal Fold Change AT3G52180 protein tyrosine phosphatase: 0.22
- Signal Fold Change AT3G52920 expressed protein (defense response): 3.88
- Signal Fold Change AT3G53540, unknown biological function: 0.41
- Signal Fold Change AT3G56480, unknown biological function: 2.86
- Signal Fold Change AT3G58710 WRKY transcription factor: 2.61
- Signal Fold Change AT3G59370, unknown biological function: 3.33
- Signal Fold Change AT3G59710 short-chain dehydrogenase: 0.48
- Signal Fold Change AT3G59900, unknown biological function: 0.39
- Signal Fold Change AT3G60520, unknown biological function: 0.30
- Signal Fold Change AT3G61160 shaggy-related protein kinase beta/ASK-beta (ASK2): 5.02
- Signal Fold Change AT4G00730 anthocyaninless2: 0.54
- Signal Fold Change AT4G01410, unknown biological function: 0.54
- Signal Fold Change AT4G03140 short-chain dehydrogenase: 0.23
- Signal Fold Change AT4G08300, unknown biological function: 4.13
- Signal Fold Change AT4G09570 calcium-dependent protein kinase: 0.34
- Signal Fold Change AT4G10910, unknown biological function: 4.49
- Signal Fold Change AT4G11190 disease resistance-responsive protein: 9.71
- Signal Fold Change AT4G11280 ACC synthase 6: 2.00
- Signal Fold Change AT4G11310 cysteine proteinase: 17.92
- Signal Fold Change AT4G12080, unknown biological function: 2.09
- Signal Fold Change AT4G12410 auxin-responsive protein: 3.30
- Signal Fold Change AT4G12480 lipid transfer protein: 0.06
- Signal Fold Change AT4G13210, unknown biological function: 0.27
- Signal Fold Change AT4G15550 UDP-glucose:indole-3-acetate beta-D-glucosyltransferase: 0.39
- Signal Fold Change AT4G15920, unknown biological function: 23.20
- Signal Fold Change AT4G17220 expressed protein (cytoskeleton organization and biogenesis): 2.48
- Signal Fold Change AT4G18340 glycosyl hydrolase: 3.43
- Signal Fold Change AT4G23410 senescence-associated protein: 1.83
- Signal Fold Change AT4G25780, unknown biological function: 9.00
- Signal Fold Change AT4G26010 peroxidase: 0.49
- Signal Fold Change AT4G28085, unknown biological function: 3.16
- Signal Fold Change AT4G31000, unknown biological function: 0.51
- Signal Fold Change AT4G32920, unknown biological function: 2.81
- Signal Fold Change AT4G34560, unknown biological function: 2.51
- Signal Fold Change AT4G34760 auxin-responsive protein: 0.22
- Signal Fold Change AT4G35060 copper chaperone: 3.90
- Signal Fold Change AT4G35150, unknown biological function: 0.31
- Signal Fold Change AT4G36520, unknown biological function: 2.99
- Signal Fold Change AT4G37220 stress-responsive protein: 15.33
- Signal Fold Change AT4G38690, signal transduction, 1-phosphatidylinositol: 3.39
- Signal Fold Change AT4G39210 ADP-glucose pyrophosphorylase: 0.34
- Signal Fold Change AT4G39800 inositol-3-phosphate synthase isozyme 1: 2.69
- Signal Fold Change AT4G39840, unknown biological function: 0.36
- Signal Fold Change AT5G01210, unknown biological function: 0.37
- Signal Fold Change AT5G01300, unknown biological function: 2.28
- Signal Fold Change AT5G02260, cell wall organization and biogenesis, expansin (EXP9): 0.23
- Signal Fold Change AT5G02540 short-chain dehydrogenase: 0.33
- Signal Fold Change AT5G03160 DNAJ heat shock N-terminal domain-containing protein: 2.24
- Signal Fold Change AT5G04080, unknown biological function: 3.07
- Signal Fold Change AT5G05180, unknown biological function: 1.98
- Signal Fold Change AT5G06200, unknown biological function: 1.99
- Signal Fold Change AT5G08240, unknown biological function: 2.56
- Signal Fold Change AT5G08260 serine carboxypeptidase S10 protein: 0.35
- Signal Fold Change AT5G08370 alpha-galactosidase: 3.99
- Signal Fold Change AT5G09980 expressed protein (defense response): 0.28
- Signal Fold Change AT5G10720 sensory transduction histidine kinase: 0.36
- Signal Fold Change AT5G11540, unknown biological function: 6.69
- Signal Fold Change AT5G12170, response to cadmium ion, expressed protein: 0.34
- Signal Fold Change AT5G13870 endo-xyloglucan transferase: 0.19
- Signal Fold Change AT5G13910 AP2/EREBP-like transcription factor: 0.40
- Signal Fold Change AT5G14780 formate dehydrogenase: 0.41
- Signal Fold Change AT5G14920 gibberellin-regulated protein: 0.33
- Signal Fold Change AT5G15290, unknown biological function: 2.99
- Signal Fold Change AT5G15530 biotin carboxyl carrier protein 2: 0.43
- Signal Fold Change AT5G15830 bZIP transcription factor protein: 4.29
- Signal Fold Change AT5G18470, unknown biological function: 0.24
- Signal Fold Change AT5G18670 beta-amylase: 0.63
- Signal Fold Change AT5G18860, unknown biological function: 3.13
- Signal Fold Change AT5G18970, unknown biological function: 3.98
- Signal Fold Change AT5G19890 peroxidase: 0.03
- Signal Fold Change AT5G19930, unknown biological function: 1.84
- Signal Fold Change AT5G20410 monogalactosyldiacylglycerol synthase: 2.86
- Signal Fold Change AT5G22310, unknown biological function: 0.46
- Signal Fold Change AT5G22860 serine carboxypeptidase S28 protein: 3.07
- Signal Fold Change AT5G23750, unknown biological function: 4.93
- Signal Fold Change AT5G24870, unknown biological function: 2.71
- Signal Fold Change AT5G25140 cytochrome P450: 6.66
- Signal Fold Change AT5G25160 zinc finger (C2H2 type) protein: 2.70
- Signal Fold Change AT5G25190 ethylene-responsive element-binding protein: 0.25
- Signal Fold Change AT5G34940, unknown biological function: 0.44
- Signal Fold Change AT5G37300, unknown biological function: 5.67
- Signal Fold Change AT5G38930, unknown biological function: 0.16
- Signal Fold Change AT5G39860 bHLH protein: 4.44
- Signal Fold Change AT5G41900 hydrolase: 4.02
- Signal Fold Change AT5G44410, unknown biological function: 2.89
- Signal Fold Change AT5G44580, unknown biological function: 0.14
- Signal Fold Change AT5G46890 lipid transfer protein: 3.10
- Signal Fold Change AT5G47240, unknown biological function: 8.92
- Signal Fold Change AT5G47330 palmitoyl protein thioesterase protein: 2.34
- Signal Fold Change AT5G47450 major intrinsic protein: 2.81
- Signal Fold Change AT5G47950, unknown biological function: 4.37
- Signal Fold Change AT5G48490 lipid transfer protein: 3.78
- Signal Fold Change AT5G48900, unknown biological function: 0.58
- Signal Fold Change AT5G49900, unknown biological function: 3.82
- Signal Fold Change AT5G50720 ABA-responsive protein (HVA22e): 2.97
- Signal Fold Change AT5G52120 SKP1 interacting partner 3 protein: 11.57
- Signal Fold Change AT5G53190, unknown biological function: 7.32
- Signal Fold Change AT5G53830, unknown biological function: 0.30
- Signal Fold Change AT5G56320, cell wall organization and biogenesis, expansin (EXP14): 4.57
- Signal Fold Change AT5G58660, unknown biological function: 0.40
- Signal Fold Change AT5G59540 oxidoreductase: 0.34
- Signal Fold Change AT5G63450 cytochrome P450: 16.44
- Signal Fold Change AT5G63650 serine/threonine protein kinase: 0.59
- Signal Fold Change AT5G65970 seven transmembrane MLO protein: 2.84
- Signal Fold Change AT5G66310, microtubule-based movement, kinesin motor protein: 0.48
- Signal Fold Change AT5G66400 dehydrin (RAB18): 1.10
- Signal Fold Change AT5G66440, unknown biological function: 0.32
- Signal Fold Change AT5G66460 (1-4)-beta-mannan endohydrolase: 0.52
- Signal Fold Change AT5G66780, unknown biological function: 1.48
